Data: patent US20260070917A1, “CYCLIN DEPENDENT KINASE DEGRADERS AND METHODS OF USE THEREOF” (Differentiated Therapeutics Inc, priority 2023, published 2026)
Like-named read-outs stand apart in the source and are kept apart here.

Legend:
Type in all cases: cell-based
CCNE1 = molecular target: T1, CCNE1 (Homo sapiens, UniProt P24864); assay: HiBit Assay Protocol for CCNE1 (HIBIT protein quantification, degradation); conditions: HEK293-CCNE1-Hibit cells, compound treatment for 6 hours
T1 construct: host or cells: HEK293-CCNE1-Hibit
Protocol: HiBit Assay Protocol for CCNE1
(§1) • 1. The culture medium for HEK293-CCNE1-Hibit cell was prepared using EMEM with 1000 FBS. • 2. Cells were cultivated in T-75 flasks in a cell culture incubator set at 37° C., 5% CO2, 95% relative humidity. Cells were allowed to reach 80-90% confluence before detaching and splitting. • 3. Cultivated cells were rinsed in T-75 flasks with 5 mL PBS. Aspirate off Added was 1.5 mL trypsin, and the cells were incubated at 37° C. for approximately 5 minutes or until the cells detached and floated. • 4. Trypsin was inactivated by adding excess serum containing medium. • 5. Cells were harvested from flask into cell culture medium and then the cell number was counted. HEK293-CCNE1-Hibit cell were seeded into 384-well plate (cell density: 1.6×10^5 cells/well/50 uL medium) in EMEM medium according to the plate map below and incubated overnight at 37° C. and 500 CO2. • Note: Cell Cultured Medium: 90% EMEM+10% FBS+1% Penicillin-Streptomycin Liquid
(§2) • 1. Test compounds were dissolved at 10 mM DMSO stock solution. 45 μL of stock solution was transferred to a 384 pp-plate. A 3-fold, 10-point dilution was performed via transferring 15 uL compound into 30 uL DMSO by using TECAN liquid handler. • 2. The plates were spinned at room temperature at 1,000 RPM for 1 minute. • 3. 50 nL of diluted compound was transferred from compound source plate into the cell plate by Echo. • 4. After compound treatment for 6 hours, the plate was removed from incubators and equilibrated at room temperature for 15 minutes. The HiBit reagent was prepared, consisting of the following ratios: 10 mL of Nano-Glo®-HiBiT Lytic Buffer, 200 μL of Nano-Glo®-HiBiT Lytic Substrate and 100 μL of LgBiT Protein, mix thoroughly. 20 μL of HiBit reagent was added into each well and the plates were spinned at room temperature at 1,000 RPM for 1 minute to be detected. Then the plates were shaken at 600 RPM at room temperature for 20 minutes, and read by EnVision. • 5. The inhibition activity was calculated following the formula below:
(§3) [formula] • Note: Where HC is obtained from cells treated with […] only; LC is obtained from culture medium only. • 6. ABS DC50 was calculated by fitting the Curve using Xlfit (v5.3.1.3), equation 201: […]

CDK2 = molecular target: T2, CDK2 (Homo sapiens, UniProt P24941); assay: HiBit Assay Protocol for CDK2 (HIBIT protein quantification, degradation); conditions: HEK293-CDK2-Hibit cells, compound treatment for 6 hours; for DC50: ABS DC50
T2 construct: host or cells: HEK293-CDK2-Hibit
Protocol: HiBit Assay Protocol for CDK2
as §1, with “HEK293-CDK2-Hibit cells” for “HEK293-CCNE1-Hibit cell”, “DMEM” for “EMEM”, “10%” for “1000”, “5%” for “500”, “DMEM+10%” for “EMEM+10%”
as §2, with “mM DMS” for “mM DMSO”, “45 uL” for “45 μL”, “100 uL” for “100 μL”, “Protein, mixed” for “Protein, mix”
as §3

CDK9 = molecular target: T3, CDK9 (Homo sapiens, UniProt P50750); assay: HiBit Assay Protocol for CDK9 (HIBIT protein quantification, degradation); conditions: HEK293-CDK9-Hibit cells, compound treatment for 6 hours; for Dmax: read-out: CDK9 HIBIT Protein Quantification Maximum; for DC50: ABS DC50
T3 construct: host or cells: HEK293-CDK9-Hibit
Protocol: HiBit Assay Protocol for CDK9
• 1. The culture medium for HEK293-CDK9-Hibit cell was prepared using DMEM with 10% FBS. • 2. Cells were cultivated in T-75 flasks in a cell culture incubator set at 37° C., 5% CO2, 95% relative humidity. Cells were allowed to reach 80-90% confluence before detaching and splitting. • 3. Cultivated cells were rinsed in T-75 flasks with 5 mL PBS. Aspirated off. Added 1.5 mL trypsin, and incubated the cells at 37° C. for approximately 5 minutes or until the cells detached and floated. • 4. Trypsin was inactivated by adding excess serum containing medium. • 5. Cells were harvested from flask into cell culture medium and then the cell number was counted. HEK293-CDK9-Hibit cells were seeded into 384-well plate (cell density: 1.6×10^5 cells/well/50 uL medium) in DMEM medium according to the plate map below and were incubated overnight at 37° C. and 5% CO2. • Note: Cell Cultured Medium: 90% DMEM+10% FBS+1% Penicillin-Streptomycin Liquid
• 1. Test compounds were dissolved at 3 mM DMSO stock solution. Transferred 45 uL of stock solution to a 384 pp-plate. Perform 3-fold, 10-point dilution via transferring 15 uL compound into 30 uL DMSO by using TECAN liquid handler. • 2. The plates were spinned at room temperature at 1,000 RPM for 1 minute. • 3. Transferred 50 nL of diluted compound from compound source plate into the cell plate by Echo. • 4. After compound treatment for 6 hours, removed the plate from incubators and equilibrated at room temperature for 15 minutes. Prepared the HiBit reagent consists of the following ratios: 10 mL of Nano-Glo®-HiBiT Lytic Buffer, 200 uL of Nano-Glo®-HiBiT Lytic Substrate and 100 uL of LgBiT Protein, mixed thoroughly. Added 20 uL of HiBit reagent into each well and spinned the plates at room temperature at 1,000 RPM for 1 minute to be detected. Plates were then shaken at 600 RPM at room temperature for 20 minutes, and read by EnVision. • 5. The inhibition activity was calculated following the formula below:
[formula] • Note: Where HC was obtained from cells treated with 0.1% DMSO only; LC was obtained from culture medium only. • 6. The ABS DC50 was calculated by fitting the Curve using Xlfit (v5.3.1.3), equation 201: […]

T1 sequence (P24864 whole entry): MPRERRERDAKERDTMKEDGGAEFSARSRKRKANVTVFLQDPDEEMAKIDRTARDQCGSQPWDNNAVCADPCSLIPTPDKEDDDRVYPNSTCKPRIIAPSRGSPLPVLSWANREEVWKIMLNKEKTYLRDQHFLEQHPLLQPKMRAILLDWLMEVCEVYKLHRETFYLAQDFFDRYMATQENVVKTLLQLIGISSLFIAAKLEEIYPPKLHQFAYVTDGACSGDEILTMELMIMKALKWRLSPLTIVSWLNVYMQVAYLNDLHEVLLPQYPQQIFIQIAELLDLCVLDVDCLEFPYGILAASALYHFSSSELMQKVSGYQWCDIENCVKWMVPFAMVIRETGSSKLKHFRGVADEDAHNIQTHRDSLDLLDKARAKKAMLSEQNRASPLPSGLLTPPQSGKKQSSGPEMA
T3 sequence (P50750 whole entry): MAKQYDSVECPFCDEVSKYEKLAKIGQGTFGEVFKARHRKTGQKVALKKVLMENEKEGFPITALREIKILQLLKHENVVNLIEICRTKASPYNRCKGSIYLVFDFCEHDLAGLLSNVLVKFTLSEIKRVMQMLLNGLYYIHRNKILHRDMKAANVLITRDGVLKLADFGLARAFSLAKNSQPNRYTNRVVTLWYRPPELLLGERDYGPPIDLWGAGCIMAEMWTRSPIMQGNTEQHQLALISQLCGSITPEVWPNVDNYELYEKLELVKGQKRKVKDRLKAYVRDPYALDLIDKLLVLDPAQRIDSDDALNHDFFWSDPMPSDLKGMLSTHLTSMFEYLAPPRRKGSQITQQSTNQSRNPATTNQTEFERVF

CC(C)[C@H]1CN([C@@H](C)c2cccc(S(=O)(=O)N3CC[C@H](Nc4ncc5c(n4)N([C@@H]4CCC[C@@H](O)C4)C(=O)C54CC4)[C@H](F)C3)c2)CCN1c1ccc2c(N3CCC(=O)NC3=O)nn(C)c2c1 (single isomer, unassigned) [Compound 202]
CCNE1 HIBIT Protein Quantification Maximum (CCNE1): 37%
CDK2 HIBIT Protein Quantification Maximum (CDK2): 88%
DC50 (CDK2): 10.9 nM
Dmax (CDK9; 6 h): 20%

O=C1CCC(N2Cc3cc(N4CCN(C5CN(c6cccc(S(=O)(=O)N7CCC(Nc8ncc9c(n8)N([C@H]8CCC[C@H](O)C8)C(=O)C98CC8)CC7)c6)C5)CC4)ccc3C2=O)C(=O)N1 (stereo in doubt) [Compound 133, 3-[5-(4-{1-[3-(4-{7′-[(1S,3S)-3-Hydroxycyclohexyl]-6′-oxospiro[cyclopropane-1,5′-pyrrolo[2,3-d]pyrimidin]-2′-ylamino}piperidin-1-ylsulfonyl)phenyl]azetidin-3-yl}piperazin-1-yl)-1-oxo-3H-isoindol-2-yl]piperidine-2,6-dione]
CCNE1 HIBIT Protein Quantification Maximum (CCNE1): 26%
CDK2 HIBIT Protein Quantification Maximum (CDK2): 61%
DC50 (CDK2): 9.23 nM
Dmax (CDK9; 6 h): 14%

Cn1nc(N2CCC(=O)NC2=O)c2ccc(C3CCN(Cc4cncc(S(=O)(=O)N5CCC(Nc6ncc7c(n6)N([C@H]6CCC[C@H](O)C6)C(=O)C76CC6)CC5)c4)CC3)cc21 (stereo in doubt) [Compound 161, 1-[6-(1-{[5-(4-{7′-[(1S,3S)-3-Hydroxycyclohexyl]-6′-oxospiro[cyclopropane-1,5′-pyrrolo[2,3-d]pyrimidin]-2′-ylamino}piperidin-1-ylsulfonyl)pyridin-3-yl]methyl}piperidin-4-yl)-1-methylindazol-3-yl]-1,3-diazinane-2,4-dione]
CCNE1 HIBIT Protein Quantification Maximum (CCNE1): 45%
CDK2 HIBIT Protein Quantification Maximum (CDK2): 79%
DC50 (CDK2): 6.06 nM
Dmax (CDK9): 17%

CC(C)[C@H]1CN([C@H](C)c2cccc(S(=O)(=O)N3CC[C@H](Nc4ncc5c(n4)N([C@@H]4CCC[C@@H](O)C4)C(=O)C54CC4)[C@H](F)C3)c2)CCN1c1ccc2c(N3CCC(=O)NC3=O)nn(C)c2c1 (stereo in doubt) [Compound 203]
CCNE1 HIBIT Protein Quantification Maximum (CCNE1): 34%
CDK2 HIBIT Protein Quantification Maximum (CDK2): 85%
DC50 (CDK2): 10.2 nM
Dmax (CDK9; 6 h): 18%

CC1CCCC1N1C(=O)C2(CC2)c2cnc(NC3CCN(S(=O)(=O)N4CC5(CCN(C(=O)Cc6cccc7c6n(C)c(=O)n7C6CCC(=O)NC6=O)CC5)C4)CC3)nc21 (stereo not shown) [Compound 15]
CCNE1 HIBIT Protein Quantification Maximum (CCNE1): 15%
CDK2 HIBIT Protein Quantification Maximum (CDK2): 27%
Dmax (CDK9; 6 h): -3%

CC1CCCC1N1C(=O)C2(CC2)c2cnc(NC3CCN(S(=O)(=O)N4CC5CN(C(=O)CCc6cccc7c6n(C)c(=O)n7C6CCC(=O)NC6=O)CC5C4)CC3)nc21 (stereo not shown) [Compound 16]
CCNE1 HIBIT Protein Quantification Maximum (CCNE1): 17%
CDK2 HIBIT Protein Quantification Maximum (CDK2): 49%
Dmax (CDK9; 6 h): 57%
DC50 (CDK9): 3.67 nM

CC1CCCC1N1C(=O)C2(CC2)c2cnc(NC3CCN(S(=O)(=O)N4CCC5(CCCN5C(=O)CCc5cccc6c5n(C)c(=O)n6C5CCC(=O)NC5=O)C4)CC3)nc21 (stereo not shown) [Compound 17]
CCNE1 HIBIT Protein Quantification Maximum (CCNE1): 26%
CDK2 HIBIT Protein Quantification Maximum (CDK2): 54%
DC50 (CDK2): 17 nM
Dmax (CDK9; 6 h): 26%

CC1CCCC1N1C(=O)C2(CC2)c2cnc(NC3CCN(S(=O)(=O)N4CC5(CCCN(C(=O)CCc6cccc7c6n(C)c(=O)n7C6CCC(=O)NC6=O)C5)C4)CC3)nc21 (stereo not shown) [Compound 18]
CCNE1 HIBIT Protein Quantification Maximum (CCNE1): 20%
CDK2 HIBIT Protein Quantification Maximum (CDK2): 63%
DC50 (CDK2): 12 nM
Dmax (CDK9; 6 h): 5%

CC1CCCC1N1C(=O)C2(CC2)c2cnc(NC3CCN(S(=O)(=O)N4CC5(CN(C(=O)CCc6cccc7c6n(C)c(=O)n7C6CCC(=O)NC6=O)C5)C4)CC3)nc21 (stereo not shown) [Compound 19]
CCNE1 HIBIT Protein Quantification Maximum (CCNE1): 26%
CDK2 HIBIT Protein Quantification Maximum (CDK2): 19%
Dmax (CDK9; 6 h): 25%

CC1CCCC1N1C(=O)C2(CC2)c2cnc(NC3CCN(S(=O)(=O)N4CC5(CCN(C(=O)CCc6cccc7c6n(C)c(=O)n7C6CCC(=O)NC6=O)CC5)C4)CC3)nc21 (stereo not shown) [Compound 20]
CCNE1 HIBIT Protein Quantification Maximum (CCNE1): 29%
CDK2 HIBIT Protein Quantification Maximum (CDK2): 46%
Dmax (CDK9; 6 h): 71%
DC50 (CDK9): 86.3 nM

CC1CCCC1N1C(=O)C2(CC2)c2cnc(NC3CCN(S(=O)(=O)N4CCC5(CCN(C(=O)CCc6cccc7c6n(C)c(=O)n7C6CCC(=O)NC6=O)C5)C4)CC3)nc21 (stereo not shown) [Compound 21]
CCNE1 HIBIT Protein Quantification Maximum (CCNE1): 28%
CDK2 HIBIT Protein Quantification Maximum (CDK2): 54%
DC50 (CDK2): 41 nM
Dmax (CDK9; 6 h): 28%

CC1CCCC1N1C(=O)C2(CC2)c2cnc(NC3CCN(S(=O)(=O)N4CC(N(C)C(=O)CCCc5cccc6c5n(C)c(=O)n6C5CCC(=O)NC5=O)C4)CC3)nc21 (stereo not shown) [Compound 22, 4-(1-(2,6-dioxopiperidin-3-yl)-3-methyl-2-oxo-2,3-dihydro-1H-benzo[d]imidazol-4-yl)-N-methyl-N-(1-((4-((7′-(2-methylcyclopentyl)-6′-oxo-6′,7′-dihydrospiro[cyclopropane-1,5′-pyrrolo[2,3-d]pyrimidin]-2′-yl)amino)piperidin-1-yl)sulfonyl)azetidin-3-yl)butanamide]
CCNE1 HIBIT Protein Quantification Maximum (CCNE1): 18%
CDK2 HIBIT Protein Quantification Maximum (CDK2): 57%
DC50 (CDK2): 44 nM
Dmax (CDK9; 6 h): 35%
